In patent US20130102593A1, “PYRROLIDINE COMPOUNDS WHICH INHIBIT BETA-SECRETASE ACTIVITY AND METHODS OF USE THEREOF” (priority 2008, published 2013):
Where two headings read alike, the source gives them in different places.

Legend:
Aβ production = assay: Cellular Aβ IC50 determination (memapsin 2 activity in a cellular assay of Aβ production); type: cell-based, Chinese hamster; conditions: Cricetulus griseus, read-out: M2 IC50
Summary of the method: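 CHO cells over-expressing human APP695 (London and Swedish mutations) were given serially diluted compound (top near 4 μM, 0.4% DMSO) 48 h after seeding, then incubated 24 h at 37° C. Aβ40 in medium measured by sandwich ELISA relative to control; IC50 from 4-parameter fit.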

[1] = Determination of hepatic intrinsic clearance in liver microsomes; type: in vitro ADME; conditions: human liver microsomes, value in text
Procedure: To 500 μl of 200 mM Na^+K^+ phoshapte buffer (pH 7.4), 100 μl of 1 mM EDTA solution was added followed by 100 μl of 2 mg protein/ml human liver microsomes. A 10 μl aliquot of test compound (20 mM stock in 50% acetonitrile) was diluted further with 40 μl of H2O (total assay volume 750 μl. Assay mixture is incubated for 5 minutes at 37° C. The assay was initiated by addition of 250 μl of 4 mM NADPH solution. Incubation was continued at 37° C. Separate reaction mixtures were prepared for 0, 5, 10, 20, and 30 min durations. Individual reactions were halted by addition of 150 μl of 100% acetonitrile. Internal standard (10 μl of 100 ng/ml diazepam solution) was added. Concentration of the test compound in each separate reaction was measured using LC/MS/MS and a standard curve for the test compound according to standard procedures.
The hepatic intrinsic clearance in liver microsome was determined by the following procedure described by Davies and Morris (Davies, B. and Morris, T. (19930) Physiological parameters in laboratory animals and humans. Pharm Res. 10:1093-1095) detailing the relationship of in vitro clearance to physiological parameters in animals and human subjects. […]
where T is time (in minutes), from the relationship of relative amount vs. time. Alternatively, k1 was determined from a transform of the equation, where […]

[2] = Chinese hamster ovary cells over-expressing human APP695 with London and Swedish mutations, 24 h, Aβ40 sandwich ELISA

## Cc1coc([C@H]2CCCN2C(=O)c2cccc(C(=O)N[C@@H](Cc3ccccc3)[C@H](O)[C@H]3C[C@@H](OCc4ccccc4)CN3)c2)n1 [1-18, N-((1R,2S)-1-((2R,4R)-4-(benzyloxy)pyrrolidin-2-yl)-1-hydroxy-3-phenylpropan-2-yl)-3-((R)-2-(4-methyloxazol-2-yl)pyrrolidine-1-carbonyl)benzamide]
Aβ production; CHO cells over-expressing human APP695, Aβ40 ELISA
  IC50: 291 nM
Aβ production; [2]
  IC50: < 500 nM
[1]; listed as N-(1R,2S)-1-((2R,4R)-4-(benzyloxy)pyrrolidin-2-yl)-1-hydroxy-3-phenylpropan-2-y
  hepatic intrinsic clearance in liver microsomes (HLM CL): approximately 337 mL/min/kg
[1]; listed as N-((1R,2S)-1-(2R,4R)-4-(benzyloxy)pyrrolidin-2-yl)-1-hydroxy-3-phenylpropan-2-yl
  hepatic intrinsic clearance in liver microsomes (HLM CL): 337 mL/min/kg

## Cc1csc([C@H]2CCCN2C(=O)c2cccc(C(=O)N[C@@H](Cc3ccccc3)[C@H](O)CNCc3cccc(C(C)(C)C)c3)c2)n1 [2-10, N-((2S,3R)-4-(3-tert-butylbenzylamino)-3-hydroxy-1-phenylbutan-2-yl)-3-((R)-2-(4-methylthiazol-2-yl)pyrrolidine-1-carbonyl)benzamide, reference compound]
Aβ production; [2]
  IC50: < 500 nM
